This test deals with human NEP (Homo sapiens (Human), UniProt P08473). The test can be described thus: In vitro enzyme inhibition assay at human NEP (Assay 1). It counts as biochemical. The note with it: pKi values at human NEP, reported as ranges.

Data on one compound can be found in patent publication US11547687B2, “Neprilysin inhibitors” (THERAVANCE BIOPHARMA R&D IP, LLC, priority 2011, dated 2023).

Compound `CC(C)COC(=O)C(=O)N[C@H](Cc1ccc(-c2cc(Cl)ccc2Cl)cc1)C[C@@H](O)C(=O)O` [Example 3D, (2R,4R)-5-(2′,5′-Dichlorobiphenyl-4-yl)-2-hydroxy-4-(isobutoxyoxalylamino)-pentanoic Acid] gave a negative logarithm of the Ki (pKi) of at least 9.

As usually defined, the pKi is the Ki on a negative log10 scale, so that one unit is a factor of ten.
